Measured values: paper PMC7035787 (Molecular pharmaceutics, 2019)

Key:
[1] = tested on: lungs from sham and PAH rats; test: Pulmonary retention in isolated perfused rat lung; format: in vitro ADME; conditions: IT route, sham and PAH lungs
[2] = Pulmonary retention in isolated perfused rat lung; format: in vitro ADME; conditions: rat, 3 mg/kg, 2 h
[3] = in vivo; conditions: male, Sprague-Dawley, rat, 3 mg/kg

drug concentration in the perfusate [1]: about 10 μg/mL
recovery at 2 h ([2]; IPRL tubes (circuitry), other: intratracheal (IT) via the tracheal cannula, pH 7.4, recovery dose (%) IPRL tubes, IT route, PAH lungs, by subtraction from dose): 16.6 ± 7.7%
recovery at 2 h ([2]; IPRL tubes (circuitry), other: intratracheal (IT) via the tracheal cannula, pH 7.4, recovery dose (%) IPRL tubes, IT route, Sham lungs, by subtraction from dose): 7.4 ± 1%
recovery at 2 h ([2]; lung homogenate, other: intratracheal (IT) via the tracheal cannula, pH 7.4, recovery dose (%) lung, IT route, PAH lungs, fasudil 3 mg/kg): 70.1 ± 7.3%
recovery at 2 h ([2]; lung homogenate, other: intratracheal (IT) via the tracheal cannula, pH 7.4, recovery dose (%) lung, IT route, Sham lungs, fasudil 3 mg/kg): 71.8 ± 2%
recovery at 2 h ([2]; lung homogenate, other: via the cannulated pulmonary artery, mimicking IV, pH 7.4, recovery dose (%) lung, IV-mimicking route, PAH lungs, fasudil 3 mg/kg): 49.6 ± 6.2%
recovery at 2 h ([2]; lung homogenate, other: via the cannulated pulmonary artery, mimicking IV, pH 7.4, recovery dose (%) lung, IV-mimicking route, Sham lungs, fasudil 3 mg/kg): 34.7 ± 3.2%
recovery at 2 h ([2]; perfusate, other: intratracheal (IT) via the tracheal cannula, pH 7.4, recovery dose (%) perfusate, IT route, PAH lungs, fasudil 3 mg/kg): 13.3 ± 2.6%
recovery at 2 h ([2]; perfusate, other: intratracheal (IT) via the tracheal cannula, pH 7.4, recovery dose (%) perfusate, IT route, Sham lungs, fasudil 3 mg/kg): 20.8 ± 2.7%
recovery at 2 h ([2]; perfusate, other: via the cannulated pulmonary artery, mimicking IV, pH 7.4, recovery dose (%) perfusate, IV-mimicking route, PAH lungs, fasudil 3 mg/kg): 39.1 ± 3.9%
recovery at 2 h ([2]; perfusate, other: via the cannulated pulmonary artery, mimicking IV, pH 7.4, recovery dose (%) perfusate, IV-mimicking route, Sham lungs, fasudil 3 mg/kg): 56.5 ± 5.3%
AUC(0-inf) [3]: 5967 ± 25.9 ng·h/mL
Cmax ([3]; inhaled or intranasal): 3040 ± 635 ng/mL
AUC(0-inf) ([3]; iv): 5967 ± 25.9 ng·h/mL
Structure (SMILES): O=S(=O)(c1cccc2cnccc12)N1CCCNCC1 [plain fasudil, fasudil]
